One block for each compound: values may come before it.
Tested on: K98450-129-R-PDC complex spheroid growth, percent test/control
Test: Anticancer human tumor K98450-129-R-PDC patient-derived colon adenocarcinoma cell line growth inhibition [RAS]
Settings: for IC50: curve of first compound; for viability, T/C: stronger effect = lower value
In short: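 Multi-cell-type spheroids: tumor cells plus HUVEC endothelial cells and mesenchymal stem cells. RAS-pathway inhibitors were combined with targeted agents, each dosed in half-log steps down from clinical Cmax, or from 10 microM when Cmax was unknown.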

[1] = second compound 0.00316 µM, first compound 0.000949 µM
[2] = second compound 0.00316 µM, first compound 0.003 µM
[3] = second compound 0.00316 µM, first compound 0.00949 µM
[4] = second compound 0.00316 µM, first compound 0.03 µM
[5] = second compound 0.00316 µM, first compound 0.0949 µM
[6] = second compound 0.00316 µM, first compound 0.3 µM
[7] = second compound 0.01 µM, first compound 0.000949 µM
[8] = second compound 0.01 µM, first compound 0.003 µM
[9] = second compound 0.01 µM, first compound 0.00949 µM
[10] = second compound 0.01 µM, first compound 0.03 µM
[11] = second compound 0.01 µM, first compound 0.0949 µM
[12] = second compound 0.01 µM, first compound 0.3 µM
[13] = second compound 0.0316 µM, first compound 0.000949 µM
[14] = second compound 0.0316 µM, first compound 0.003 µM
[15] = second compound 0.0316 µM, first compound 0.00949 µM
[16] = second compound 0.0316 µM, first compound 0.03 µM
[17] = second compound 0.0316 µM, first compound 0.0949 µM
[18] = second compound 0.0316 µM, first compound 0.3 µM
[19] = second compound 0.1 µM, first compound 0.000949 µM
[20] = second compound 0.1 µM, first compound 0.003 µM
[21] = second compound 0.1 µM, first compound 0.00949 µM
[22] = second compound 0.1 µM, first compound 0.03 µM
[23] = second compound 0.1 µM, first compound 0.0949 µM
[24] = second compound 0.1 µM, first compound 0.3 µM
[25] = second compound 0.316 µM, first compound 0.000949 µM
[26] = second compound 0.316 µM, first compound 0.003 µM
[27] = second compound 0.316 µM, first compound 0.00949 µM
[28] = second compound 0.316 µM, first compound 0.03 µM
[29] = second compound 0.316 µM, first compound 0.0949 µM
[30] = second compound 0.316 µM, first compound 0.3 µM
[31] = second compound 1 µM, first compound 0.000949 µM
[32] = second compound 1 µM, first compound 0.003 µM
[33] = second compound 1 µM, first compound 0.00949 µM
[34] = second compound 1 µM, first compound 0.03 µM
[35] = second compound 1 µM, first compound 0.0949 µM
[36] = second compound 1 µM, first compound 0.3 µM
[37] = second compound 0.000949 µM, first compound 0.00316 µM
[38] = second compound 0.000949 µM, first compound 0.01 µM
[39] = second compound 0.000949 µM, first compound 0.0316 µM
[40] = second compound 0.000949 µM, first compound 0.1 µM
[41] = second compound 0.000949 µM, first compound 0.316 µM
[42] = second compound 0.000949 µM, first compound 1 µM
[43] = second compound 0.003 µM, first compound 0.00316 µM
[44] = second compound 0.003 µM, first compound 0.01 µM
[45] = second compound 0.003 µM, first compound 0.0316 µM
[46] = second compound 0.003 µM, first compound 0.1 µM
[47] = second compound 0.003 µM, first compound 0.316 µM
[48] = second compound 0.003 µM, first compound 1 µM
[49] = second compound 0.00949 µM, first compound 0.00316 µM
[50] = second compound 0.00949 µM, first compound 0.01 µM
[51] = second compound 0.00949 µM, first compound 0.0316 µM
[52] = second compound 0.00949 µM, first compound 0.1 µM
[53] = second compound 0.00949 µM, first compound 0.316 µM
[54] = second compound 0.00949 µM, first compound 1 µM
[55] = second compound 0.03 µM, first compound 0.00316 µM
[56] = second compound 0.03 µM, first compound 0.01 µM
[57] = second compound 0.03 µM, first compound 0.0316 µM
[58] = second compound 0.03 µM, first compound 0.1 µM
[59] = second compound 0.03 µM, first compound 0.316 µM
[60] = second compound 0.03 µM, first compound 1 µM
[61] = second compound 0.0949 µM, first compound 0.00316 µM
[62] = second compound 0.0949 µM, first compound 0.01 µM
[63] = second compound 0.0949 µM, first compound 0.0316 µM
[64] = second compound 0.0949 µM, first compound 0.1 µM
[65] = second compound 0.0949 µM, first compound 0.316 µM
[66] = second compound 0.0949 µM, first compound 1 µM
[67] = second compound 0.3 µM, first compound 0.00316 µM
[68] = second compound 0.3 µM, first compound 0.01 µM
[69] = second compound 0.3 µM, first compound 0.0316 µM
[70] = second compound 0.3 µM, first compound 0.1 µM
[71] = second compound 0.3 µM, first compound 0.316 µM
[72] = second compound 0.3 µM, first compound 1 µM
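Further: spheroids exposed to agents for seven days before the viability readout.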
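Wherever viability, T/C is given: luminescence used as a proxy for viable cell amount.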

IC50 (second compound 0.00316 µM): > 300 nM
IC50 (second compound 0.01 µM): 270 nM
IC50 (second compound 0.0316 µM): 166 nM
IC50 (second compound 0.1 µM): 72.1 nM
IC50 (second compound 0.316 µM): < 0.949 nM
IC50 (second compound 1 µM): < 0.949 nM
Structure (SMILES): CC1(C)CCC(Nc2ncc(C(F)(F)F)c(-c3c[nH]c4c(P(C)(C)=O)c(C#N)ccc34)n2)CN1 (stereo not drawn) + C=CC(=O)N1CCN(c2nc(OCC3CCCN3C)nc3c(F)c(-c4nc(N)cc(C)c4C(F)(F)F)c(Cl)cc23)C(C)C1
viability, T/C [1]: 99.3%
viability, T/C [2]: 100%
viability, T/C [3]: 97.8%
viability, T/C [4]: 97.6%
viability, T/C [5]: 84.2%
viability, T/C [6]: 53.7%
viability, T/C [7]: 86.4%
viability, T/C [8]: 87.3%
viability, T/C [9]: 84.2%
viability, T/C [10]: 86.2%
viability, T/C [11]: 70.6%
viability, T/C [12]: 47.5%
viability, T/C [13]: 70.5%
viability, T/C [14]: 76.3%
viability, T/C [15]: 77.3%
viability, T/C [16]: 76%
viability, T/C [17]: 58.5%
viability, T/C [18]: 41.2%
viability, T/C [19]: 60.1%
viability, T/C [20]: 54.5%
viability, T/C [21]: 56.1%
viability, T/C [22]: 59%
viability, T/C [23]: 46%
viability, T/C [24]: 34.5%
viability, T/C [25]: 41.1%
viability, T/C [26]: 41.3%
viability, T/C [27]: 40.6%
viability, T/C [28]: 41.3%
viability, T/C [29]: 37.8%
viability, T/C [30]: 31%
viability, T/C [31]: 35.1%
viability, T/C [32]: 33.3%
viability, T/C [33]: 35.1%
viability, T/C [34]: 33.8%
viability, T/C [35]: 32.9%
viability, T/C [36]: 32.5%

IC50 (second compound 0.00316 µM): 28.1 nM
IC50 (second compound 0.01 µM): 16.6 nM
IC50 (second compound 0.0316 µM): 7 nM
IC50 (second compound 0.1 µM): 3.26 nM
IC50 (second compound 0.316 µM): < 0.949 nM
IC50 (second compound 1 µM): < 0.949 nM
Structure (SMILES): CCc1c2c(nc3ccc(O)cc13)-c1cc3c(c(=O)n1C2)COC(=O)[C@]3(O)CC + C=CC(=O)N1CCN(c2nc(OCC3CCCN3C)nc3c(F)c(-c4nc(N)cc(C)c4C(F)(F)F)c(Cl)cc23)C(C)C1
viability, T/C [1]: 93.5%
viability, T/C [2]: 87.7%
viability, T/C [3]: 68.1%
viability, T/C [4]: 49.7%
viability, T/C [5]: 34.1%
viability, T/C [6]: 27.6%
viability, T/C [7]: 86.7%
viability, T/C [8]: 76.1%
viability, T/C [9]: 60.6%
viability, T/C [10]: 39.1%
viability, T/C [11]: 29.2%
viability, T/C [12]: 23.6%
viability, T/C [13]: 74.5%
viability, T/C [14]: 63.8%
viability, T/C [15]: 46.1%
viability, T/C [16]: 24.1%
viability, T/C [17]: 20.6%
viability, T/C [18]: 18%
viability, T/C [19]: 54.6%
viability, T/C [20]: 53.3%
viability, T/C [21]: 33%
viability, T/C [22]: 20.3%
viability, T/C [23]: 16.7%
viability, T/C [24]: 11.7%
viability, T/C [25]: 38.1%
viability, T/C [26]: 35.4%
viability, T/C [27]: 25.4%
viability, T/C [28]: 16.6%
viability, T/C [29]: 15%
viability, T/C [30]: 9.83%
viability, T/C [31]: 31.7%
viability, T/C [32]: 30.3%
viability, T/C [33]: 23.6%
viability, T/C [34]: 18.9%
viability, T/C [35]: 14.1%
viability, T/C [36]: 8.49%

IC50 (second compound 0.000949 µM): 336 nM
IC50 (second compound 0.003 µM): 209 nM
IC50 (second compound 0.00949 µM): 89.7 nM
IC50 (second compound 0.03 µM): < 3.16 nM
IC50 (second compound 0.0949 µM): < 3.16 nM
IC50 (second compound 0.3 µM): < 3.16 nM
Structure (SMILES): C=CC(=O)Nc1cc(Nc2nccc(-c3cn(C)c4ccccc34)n2)c(OC)cc1N(C)CCN(C)C + CCn1c(-c2cc(N3CCN(C)CC3)cnc2C(C)OC)c2c3cc(ccc31)-c1csc(n1)CC(NC(=O)C1CC1C)C(=O)N1CCCC(N1)C(=O)OCC(C)(C)C2
viability, T/C [37]: 91.9%
viability, T/C [38]: 89.4%
viability, T/C [39]: 94.1%
viability, T/C [40]: 73.6%
viability, T/C [41]: 52.8%
viability, T/C [42]: 22.7%
viability, T/C [43]: 93%
viability, T/C [44]: 92%
viability, T/C [45]: 72.8%
viability, T/C [46]: 66.8%
viability, T/C [47]: 41.8%
viability, T/C [48]: 13.6%
viability, T/C [49]: 74.9%
viability, T/C [50]: 65.2%
viability, T/C [51]: 65.6%
viability, T/C [52]: 49%
viability, T/C [53]: 15.2%
viability, T/C [54]: 8.83%
viability, T/C [55]: 50.5%
viability, T/C [56]: 49%
viability, T/C [57]: 48.8%
viability, T/C [58]: 18.7%
viability, T/C [59]: 10.5%
viability, T/C [60]: 7.69%
viability, T/C [61]: 21%
viability, T/C [62]: 18.5%
viability, T/C [63]: 14.1%
viability, T/C [64]: 10.6%
viability, T/C [65]: 8.27%
viability, T/C [66]: 7.06%
viability, T/C [67]: 12.9%
viability, T/C [68]: 11.8%
viability, T/C [69]: 11.4%
viability, T/C [70]: 8.91%
viability, T/C [71]: 7.33%
viability, T/C [72]: 7.02%

IC50 (second compound 0.000949 µM): 118 nM
IC50 (second compound 0.003 µM): 64.2 nM
IC50 (second compound 0.00949 µM): 42.2 nM
IC50 (second compound 0.03 µM): 3.23 nM
IC50 (second compound 0.0949 µM): < 3.16 nM
IC50 (second compound 0.3 µM): < 3.16 nM
Structure (SMILES): O=C(c1ccc(F)c(F)c1Nc1ccc(I)cc1F)N1CC(O)([C@@H]2CCCCN2)C1 + CCn1c(-c2cc(N3CCN(C)CC3)cnc2C(C)OC)c2c3cc(ccc31)-c1csc(n1)CC(NC(=O)C1CC1C)C(=O)N1CCCC(N1)C(=O)OCC(C)(C)C2
viability, T/C [37]: 94.8%
viability, T/C [38]: 92%
viability, T/C [39]: 87.4%
viability, T/C [40]: 57.3%
viability, T/C [41]: 10.2%
viability, T/C [42]: 2.95%
viability, T/C [43]: 95.7%
viability, T/C [44]: 87%
viability, T/C [45]: 63.2%
viability, T/C [46]: 45.8%
viability, T/C [47]: 7.54%
viability, T/C [48]: 2.62%
viability, T/C [49]: 67.8%
viability, T/C [50]: 60.7%
viability, T/C [51]: 56%
viability, T/C [52]: 31.1%
viability, T/C [53]: 3.99%
viability, T/C [54]: 2.44%
viability, T/C [55]: 51.7%
viability, T/C [56]: 45%
viability, T/C [57]: 31.1%
viability, T/C [58]: 6.53%
viability, T/C [59]: 2.64%
viability, T/C [60]: 2.51%
viability, T/C [61]: 14.9%
viability, T/C [62]: 10.1%
viability, T/C [63]: 7.08%
viability, T/C [64]: 2.95%
viability, T/C [65]: 2.96%
viability, T/C [66]: 2.57%
viability, T/C [67]: 8.48%
viability, T/C [68]: 8.02%
viability, T/C [69]: 4.92%
viability, T/C [70]: 2.97%
viability, T/C [71]: 3.32%
viability, T/C [72]: 2.59%

Reference: PubChem BioAssay AID2060891 (Molecular Pharmacology Branch, DTP, NCI, 2025)
